One data set concerns aged chow-fed mice. The data set can be described thus: Oral glucose tolerance test in aged chow-fed mice, with serum insulin and GLP-1. The data set is classed as in vivo, mouse. Here is the method: Area under the curve (AUC), *p<0.05 compared to vehicle. […] Area above the curve (AAC). *p<0.05 compared to vehicle. […] Area under the curve (AUC). *p<0.05 compared to vehicle. FIG. 53D is a bar graph showing serum insulin levels 5 min post glucose challenge in chow-fed mice gavaged with 5-PAHSA or vehicle (glucose values shown in FIG. 53C). n=12-14 per group, *p<0.05 compared to vehicle by t-test. FIG. 53E is a bar graph showing serum GLP-1 levels 5 min post glucose challenge from chow-fed mice gavaged with 5-PAHSA or vehicle (glucose levels in FIG. 53C). n=12-14 per group, *p<0.05 compared to vehicle by t-test. FIG. 53F are bar graphs showing insulin secretion from primary human islets from two independent donors. Islets were incubated with low (2.5 mM) or high (20 mM) glucose ex vivo in the presence of 5-PAHSA (20 μM) or vehicle control. n=100 islets per condition, *p<0.05 compared to control 2.5 mM glucose, ^#p<0.05 compared to respective treatments at 2.5 mM glucose, ^$p<0.05 compared to control or diluents at 20 mM glucose by t-test. FIG. 53G are bar graphs showing active GLP-1 secretion from STC-1 cells in response to 5-PAHSA (5-P), 9-PAHSA (9P), […] (LA), GW9508 (GW) or vehicle control (DMSO). n=4 per group, *p<0.05 compared to vehicle by t-test. All data are mean±s.e.m. See also FIG. 56.
Studies were conducted to determine whether the PAHSA effects to improve glucose tolerance resulted entirely from the increased insulin sensitivity or also from improved insulin secretion. Therefore, the effects of PAHSAs on glucose-stimulated insulin secretion were tested in vivo in aged (47 weeks old) chow-fed mice. […] Thus, PAHSAs acutely improve insulin sensitivity and glucose tolerance and stimulate GLP-1 and insulin secretion.

A further data set has as its target T1, purified CEL (Homo sapiens, UniProt P19835).
T1 construct: purchased R&D Systems
T1 sequence (P19835 21-753): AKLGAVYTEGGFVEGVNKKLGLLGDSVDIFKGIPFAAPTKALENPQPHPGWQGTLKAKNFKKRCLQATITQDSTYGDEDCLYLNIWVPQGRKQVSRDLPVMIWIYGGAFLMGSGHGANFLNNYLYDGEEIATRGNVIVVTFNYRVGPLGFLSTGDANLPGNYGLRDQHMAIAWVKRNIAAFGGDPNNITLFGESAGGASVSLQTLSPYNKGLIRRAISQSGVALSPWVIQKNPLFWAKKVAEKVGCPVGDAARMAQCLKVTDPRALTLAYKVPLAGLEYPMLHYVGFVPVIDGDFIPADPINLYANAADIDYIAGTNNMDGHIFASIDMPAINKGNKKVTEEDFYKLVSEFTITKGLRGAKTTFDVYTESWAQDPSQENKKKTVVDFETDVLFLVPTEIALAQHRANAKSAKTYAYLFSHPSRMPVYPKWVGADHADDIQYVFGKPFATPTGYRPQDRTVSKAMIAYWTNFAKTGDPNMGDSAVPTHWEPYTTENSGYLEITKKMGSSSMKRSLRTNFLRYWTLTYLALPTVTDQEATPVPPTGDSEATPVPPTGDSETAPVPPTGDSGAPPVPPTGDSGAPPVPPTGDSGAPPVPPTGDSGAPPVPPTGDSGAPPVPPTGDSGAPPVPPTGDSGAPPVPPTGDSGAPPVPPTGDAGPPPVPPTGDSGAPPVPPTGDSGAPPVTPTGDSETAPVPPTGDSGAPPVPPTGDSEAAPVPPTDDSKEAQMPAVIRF
The experiment in a line: FAHFA hydrolysis by purified CEL. The data set is classed as biochemical. The note with it: micellar concentrations of NaTC. The text has this: To confirm the identification of CEL as a FAHFA hydrolase, a small amount of purified enzyme (available commercially from R&D Systems) was used.

The mark [1] stands for this setting: 5 minutes after glucose administration.

For the compound `CCCCCCCCCCCCCCCC(=O)OC(CCCCCCCCCCCCC)CCCC(=O)O` (stereo not shown) [5-PAHSA], in the data set with aged chow-fed mice (setting [1]), the GLP-1 levels entry is on record as “increased” and the insulin secretion entry was “acute enhancement of insulin secretion”. In addition, the glucose tolerance result in the data set with aged chow-fed mice (OGTT, gavage 30 min prior) is given as “improved glucose tolerance”.

`CCCCCCCCCCCCCCCC(=O)OC(CCCCCCCCC)CCCCCCCC(=O)O` (stereo not shown) [9-PAHSA, palmitoyl-9-hydroxystearic acid]: the “hydrolysis of 9-PAHSA (9-HSA production)” value on purified CEL is listed as “substantial hydrolysis”.

The record behind these values is patent US10604473B2, “Lipids that increase insulin sensitivity and methods of using the same” (Beth Israel Deaconess Medical Center, Inc., priority 2013, dated 2020).
